According to patent EP0326331B1, “Substituted quinolines and cinnolines” (Dow AgroSciences LLC, priority 1988, dated 1989):
Read-outs that look alike come from different tables or passages of the source.

What was measured:
Type in all cases: in vivo
[1] = test system: Venturia inaequalis (apple scab); assay: Test 1 greenhouse foliar spray screen, apple scab on apple seedling; details: disease control rating, foliar spray on apple seedling, 400 ppm (+++ at 100 ppm)
[2] = test system: Botrytis cinerea (gray mold); assay: Test 1 greenhouse foliar spray screen, gray mold on grape berries; details: disease control rating, spray on grape berries, 400 ppm (+++ at 100 ppm)
[3] = test system: Puccinia recondita tritici (leaf rust); assay: Test 1 greenhouse foliar spray screen, leaf rust on wheat; details: disease control rating, foliar spray on wheat, 400 ppm (+++ at 100 ppm)
[4] = test system: Cercospora beticola (leaf spot); assay: Test 1 greenhouse foliar spray screen, leaf spot on sugar beet; details: disease control rating, foliar spray on sugar beet, 400 ppm (+++ at 100 ppm)
[5] = test system: Pseudoperonospora cubensis (downy mildew); assay: Test 1 greenhouse foliar spray screen, downy mildew on squash; details: disease control rating, foliar spray on squash, 400 ppm (+++ at 100 ppm)
[6] = test system: Pyricularia oryzae (rice blast); assay: whole plant or invertebrate; details: disease control rating, foliar spray on rice, 400 ppm (+++ at 100 ppm)
[7] = test system: Septoria tritici (leaf blotch); assay: Test 1 greenhouse foliar spray screen, leaf blotch on wheat; details: disease control rating, foliar spray on wheat, 400 ppm (+++ at 100 ppm)
[8] = test system: southern armyworm (Spodopetra eridania Cramer); assay: Mite/insect screen, SAW; details: Spodoptera eridania, read-out: SAW RESULTS %; for mortality at 400 ppm: SM & MA RATE 400 PPM
Summary of the method: (§1)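 Read-out: percent mortality after standard exposure periods. Test solutions were water dilutions of compound dissolved in acetone/alcohol (50:50) with emulsifier blends; leaves were sprayed to runoff on both surfaces and air-dried for one hour before exposure.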

[9] = test system: Erysiphe graminis tritici (powdery mildew); assay: Test 1 greenhouse foliar spray screen, powdery mildew on wheat; details: disease control rating, foliar spray on wheat, 400 ppm (+++ at 100 ppm)
[10] = test system: Twospotted spider mites (Tetranychus urticae Koch); assay: Mite/insect screen, SM; details: for mortality at 200 ppm / mortality at 400 ppm: Tetranychus urticae, read-out: SM RESULTS %; for mortality at 400 ppm: SM & MA RATE 400 PPM
Summary of the method: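 Foliar spray to runoff (10 psi), 1 h drying; aqueous dilutions from acetone/alcohol emulsifier stock. Mortality (%) after standard exposure.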

corn rootworm = assay: Mite/insect screen, CRW; details: read-out: CRW RESULTS %; for mortality at 24 ppm: CRW RATE 24.00 PPM
Summary of the method: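 Read-out: % mortality after standard exposure. Formulation: acetone/alcohol (50:50) with emulsifiers at 23 g and 13 g per liter, water-diluted to final test levels.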

[11] = test system: melon aphids (Aphis gossypii Glover); assay: Mite/insect screen, MA; details: Aphis gossypii, read-out: MA RESULTS %; for mortality at 400 ppm: SM & MA RATE 400 PPM
Summary of the method: as §1

[12] = percent mortality, SAW, SM & MA RATE 200 PPM
[13] = percent mortality, CRW RATE 12.00 PPM

Compound	APPL SCAB [1]	GRAY MOLD [2]	LEAF RUST [3]	LEAF SPOT [4]	DOWN MDEW [5]	RICE BLAST [6]	LEAF BLOT [7]	mortality at 200 ppm [8, 12]	POWD MDEW [9]	mortality at 200 ppm [10, 12]	mortality at 12 ppm (corn rootworm; [13])	mortality at 200 ppm [11, 12]	other results
Fc1ccc2nccc(NCCc3ccc(Cl)cc3)c2c1 [Example 56, N-[2-(4-chlorophenyl)ethyl]-6-fluoro-4-quinolinamine]	- (0-19% control at 400 ppm)	- (0-19% control at 400 ppm)	++ (90-100% control at 400 ppm)	+++ (90-100% control at 100 ppm)	+++ (90-100% control at 100 ppm)	++ (90-100% control at 400 ppm)	+ (20-89% control at 400 ppm)	100%	- (0-19% control at 400 ppm)	0%	0%	0%	mortality at 400 ppm ([8]; percent mortality, SAW): 80%; mortality at 400 ppm ([10]; percent mortality, SAW): 0%; activity as miticides ([10]; summary statement in the description): particularly excellent activity; mortality at 24 ppm (corn rootworm; percent mortality): 0%; mortality at 400 ppm ([11]; percent mortality, SAW): 0%
Cc1cc(NCCc2ccc(Cl)cc2)c2cc(F)ccc2n1 [Example 57, N-[2-(4-chlorophenyl)ethyl]-2-methyl-6-fluoro-4-quinolinamine]	- (0-19% control at 400 ppm)	- (0-19% control at 400 ppm)	+ (20-89% control at 400 ppm)	+++ (90-100% control at 100 ppm)	++ (90-100% control at 400 ppm)	++ (90-100% control at 400 ppm)	- (0-19% control at 400 ppm)	40%	- (0-19% control at 400 ppm)	0%	0%	0%	mortality at 400 ppm ([8]; percent mortality, SAW): 50%; mortality at 400 ppm ([10]; percent mortality, SAW): 0%; mortality at 24 ppm (corn rootworm; percent mortality): 0%; mortality at 400 ppm ([11]; percent mortality, SAW): 0%
Fc1cccc2c(NCC(c3ccccc3)C3CCCCC3)ccnc12 (stereo not drawn) [Example 62, 8-fluoro-N-(2-cyclohexyl-2-phenylethyl)-4-quinolinamine]	- (0-19% control at 400 ppm)	- (0-19% control at 400 ppm)	++ (90-100% control at 400 ppm)	- (0-19% control at 400 ppm)	+++ (90-100% control at 100 ppm)	++ (90-100% control at 400 ppm)	+ (20-89% control at 400 ppm)	–	- (0-19% control at 400 ppm)	–	–	–	mortality at 400 ppm ([8]; percent mortality, SAW): 0%; mortality at 400 ppm ([10]; percent mortality, SAW): 0%; mortality at 24 ppm (corn rootworm; percent mortality): 0%; mortality at 400 ppm ([11]; percent mortality, SAW): 0%
Fc1cccc(F)c1CCNc1ccnc2c(F)cccc12 [Example 65, N-[2-(2,6-difluorophenyl)ethyl]-8-fluoro-4-quinolinamine]	- (0-19% control at 400 ppm)	- (0-19% control at 400 ppm)	++ (90-100% control at 400 ppm)	- (0-19% control at 400 ppm)	+++ (90-100% control at 100 ppm)	+ (20-89% control at 400 ppm)	+ (20-89% control at 400 ppm)	0%	+ (20-89% control at 400 ppm)	0%	0%	0%	–
Fc1cccc(CCNc2ccnc3c(F)cccc23)c1 [Example 66, 8-fluoro-N-[2-(3-fluorophenyl)ethyl]-4-quinolinamine]	- (0-19% control at 400 ppm)	- (0-19% control at 400 ppm)	+++ (90-100% control at 100 ppm)	+++ (90-100% control at 100 ppm)	+++ (90-100% control at 100 ppm)	++ (90-100% control at 400 ppm)	+ (20-89% control at 400 ppm)	0%	+ (20-89% control at 400 ppm)	0%	0%	0%	–
COc1cc(CCNc2ccnc3ccccc23)cc(OC)c1 [Example 67, N-[2-(3,5-dimethoxyphenyl)ethyl]-4-quinolinamine]	- (0-19% control at 400 ppm)	- (0-19% control at 400 ppm)	+ (20-89% control at 400 ppm)	+ (20-89% control at 400 ppm)	++ (90-100% control at 400 ppm)	+ (20-89% control at 400 ppm)	- (0-19% control at 400 ppm)	0%	- (0-19% control at 400 ppm)	0%	0%	0%	–
COc1ccccc1CCNc1ccnc2c(F)cccc12 [Example 68, 8-fluoro-N-[2-(2-methoxyphenyl)ethyl]-4-quinolinamine]	- (0-19% control at 400 ppm)	- (0-19% control at 400 ppm)	+++ (90-100% control at 100 ppm)	- (0-19% control at 400 ppm)	++ (90-100% control at 400 ppm)	+ (20-89% control at 400 ppm)	+++ (90-100% control at 100 ppm)	0%	+ (20-89% control at 400 ppm)	0%	0%	0%	–
Clc1cnc2ccccc2c1NCC(Cl)c1ccccc1 (stereo not drawn) [Example 69, 3-chloro-N-(2-chloro-2-phenylethyl)-4-quinolinamine]	- (0-19% control at 400 ppm)	- (0-19% control at 400 ppm)	+ (20-89% control at 400 ppm)	- (0-19% control at 400 ppm)	+++ (90-100% control at 100 ppm)	+ (20-89% control at 400 ppm)	- (0-19% control at 400 ppm)	–	+ (20-89% control at 400 ppm)	–	–	–	mortality at 200 ppm [8]: 0%; mortality at 200 ppm [10]: 0%; mortality at 12 ppm (corn rootworm): 0%; mortality at 200 ppm [11]: 0%
FC(F)(F)c1cc(C(F)(F)F)c2c(NCCc3ccccc3)ccnc2c1 [Example 70, N-(2-phenylethyl)-5,7-bis-(trifluoromethyl)-4-quinolinamine]	- (0-19% control at 400 ppm)	- (0-19% control at 400 ppm)	+ (20-89% control at 400 ppm)	- (0-19% control at 400 ppm)	- (0-19% control at 400 ppm)	+ (20-89% control at 400 ppm)	- (0-19% control at 400 ppm)	0%	+++ (90-100% control at 100 ppm)	0%	0%	0%	–
OCc1cnc2c(F)cccc2c1NCCc1ccccc1 [Example 73, 8-fluoro-4-[(2-phenylethyl)amino]-3-quinolinemethanol]	- (0-19% control at 400 ppm)	- (0-19% control at 400 ppm)	- (0-19% control at 400 ppm)	- (0-19% control at 400 ppm)	++ (90-100% control at 400 ppm)	+ (20-89% control at 400 ppm)	- (0-19% control at 400 ppm)	0%	- (0-19% control at 400 ppm)	0%	0%	0%	–
Fc1cccc2c(NCCc3ccc(Cl)c(Cl)c3)ccnc12 [Example 75, N-[2-(3,4-dichlorophenyl)ethyl]-8-fluoro-4-quinolinamine]	- (0-19% control at 400 ppm)	- (0-19% control at 400 ppm)	++ (90-100% control at 400 ppm)	- (0-19% control at 400 ppm)	+++ (90-100% control at 100 ppm)	+ (20-89% control at 400 ppm)	+ (20-89% control at 400 ppm)	0%	+ (20-89% control at 400 ppm)	0%	0%	0%	–
